From BindingDB's records for PubMed 32739648 (n/a, 2020)

Biological target: Epidermal growth factor receptor (Homo sapiens, UniProt P00533)
Assay: Inhibition of human EGFR incubated for 1 hrs in presence of ATP by ELISA assay

Chain of Epidermal growth factor receptor (P00533 whole entry): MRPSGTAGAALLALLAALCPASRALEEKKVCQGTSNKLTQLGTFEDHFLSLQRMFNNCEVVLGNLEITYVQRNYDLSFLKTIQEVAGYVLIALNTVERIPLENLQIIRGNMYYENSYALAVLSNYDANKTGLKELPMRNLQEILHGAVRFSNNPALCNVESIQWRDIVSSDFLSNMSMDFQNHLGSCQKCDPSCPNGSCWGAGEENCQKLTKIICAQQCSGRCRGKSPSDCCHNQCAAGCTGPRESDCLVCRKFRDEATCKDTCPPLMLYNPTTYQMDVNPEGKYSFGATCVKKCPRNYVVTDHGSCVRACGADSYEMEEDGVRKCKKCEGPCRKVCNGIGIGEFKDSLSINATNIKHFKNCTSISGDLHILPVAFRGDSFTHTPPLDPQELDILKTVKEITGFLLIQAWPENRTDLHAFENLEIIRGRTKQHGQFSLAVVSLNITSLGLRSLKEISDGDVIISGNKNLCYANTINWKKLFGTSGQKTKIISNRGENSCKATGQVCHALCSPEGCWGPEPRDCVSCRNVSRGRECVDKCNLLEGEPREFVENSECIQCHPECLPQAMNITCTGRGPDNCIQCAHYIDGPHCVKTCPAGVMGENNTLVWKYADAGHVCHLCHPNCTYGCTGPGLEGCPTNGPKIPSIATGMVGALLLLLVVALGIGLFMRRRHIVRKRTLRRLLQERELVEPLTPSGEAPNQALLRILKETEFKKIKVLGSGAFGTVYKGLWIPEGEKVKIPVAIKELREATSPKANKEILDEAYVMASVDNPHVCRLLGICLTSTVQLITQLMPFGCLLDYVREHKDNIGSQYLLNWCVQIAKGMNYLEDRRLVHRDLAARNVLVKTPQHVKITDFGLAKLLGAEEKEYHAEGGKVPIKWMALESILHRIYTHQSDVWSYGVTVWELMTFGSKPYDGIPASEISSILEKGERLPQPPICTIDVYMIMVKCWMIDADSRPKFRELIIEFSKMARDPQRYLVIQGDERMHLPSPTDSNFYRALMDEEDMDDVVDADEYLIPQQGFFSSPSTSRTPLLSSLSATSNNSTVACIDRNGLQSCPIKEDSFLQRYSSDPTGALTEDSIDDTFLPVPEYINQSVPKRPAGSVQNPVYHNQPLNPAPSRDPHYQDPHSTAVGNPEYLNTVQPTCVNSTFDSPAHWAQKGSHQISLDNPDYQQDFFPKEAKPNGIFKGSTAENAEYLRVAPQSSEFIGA

SMILES: CSCC[C@@H](NC(=O)[C@@H](NC(=O)[C@@H](NC(=O)CC(=O)N(O)C/C=C(\C)CC/C=C(\C)CCC=C(C)C)C(C)C)C(C)C)C(=O)O
- IC50: 22 nM
